Experimental data taken from patent US7678807B2, “Isoquinoline and benzo[H] isoquinoline derivatives, preparation and therapeutic use thereof as antagonists of the histamine H3 receptor” (sanofi-aventis, priority 2005, dated 2010).
Counter-ions that a name gives are not always drawn.

Assays:
[1] = target: native histamine H3 receptor (Rattus norvegicus, UniProt Q9QYN8); assay: in vitro affinity assay, specific binding of [3H]-N-α-methylhistamine, adult rat brain membrane preparation; details: adult rat brain membranes, read-out: Ki with regard to the H3 receptors
From the text: Thus, the compounds of the invention of formula (I) were subjected to an in vitro affinity assay on the native histamine H3 receptor in an adult rat brain membrane preparation by the specific binding of [^3H]-N-α-methylhistamine to this receptor, according to methods described by Korte, A. et al. in Biochem. Biophys. Res. Commun., 168, 979-986 (1990) and by West, R. E. Jr. et al. in Mol. Pharmacol., 38, 610-613 (1990).

[2] = target: T1, human histamine H3 receptor (Homo sapiens, UniProt Q9Y5N1); assay: cAMP formation assay, inhibition of R-α-methylhistamine agonism, receptor transfected into CHO cells (EIA kit); type: cell-based; details: EIA kit (Amersham)
T1 construct: expressed in transfected cells; host or cells: CHO cells
From the text: The compounds of the invention of formula (I) were also subjected to a cAMP formation assay on the human histamine H3 receptor transfected into CHO cells by the inhibition of the agonism brought about by the specific binding of R-α-methylhistamine to this receptor, according to the methods described by Lovenberg, T. W. et al. in J. Pharmacol. Exp. Ther., 293, 771-778 (2000).

Sequence of native histamine H3 receptor (Q9QYN8 1-397 isoform Q9QYN8-3): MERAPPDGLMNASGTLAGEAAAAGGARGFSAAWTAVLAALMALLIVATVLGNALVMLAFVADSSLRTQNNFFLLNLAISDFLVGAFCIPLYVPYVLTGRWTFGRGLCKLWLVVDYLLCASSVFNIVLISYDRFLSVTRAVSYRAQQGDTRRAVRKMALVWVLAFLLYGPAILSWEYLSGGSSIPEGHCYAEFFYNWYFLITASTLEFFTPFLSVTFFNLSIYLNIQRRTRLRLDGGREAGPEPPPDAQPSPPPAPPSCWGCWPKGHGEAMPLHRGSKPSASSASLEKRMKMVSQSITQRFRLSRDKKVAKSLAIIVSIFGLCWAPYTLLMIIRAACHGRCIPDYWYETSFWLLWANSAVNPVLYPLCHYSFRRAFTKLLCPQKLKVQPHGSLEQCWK
T1 sequence (Q9Y5N1 whole entry): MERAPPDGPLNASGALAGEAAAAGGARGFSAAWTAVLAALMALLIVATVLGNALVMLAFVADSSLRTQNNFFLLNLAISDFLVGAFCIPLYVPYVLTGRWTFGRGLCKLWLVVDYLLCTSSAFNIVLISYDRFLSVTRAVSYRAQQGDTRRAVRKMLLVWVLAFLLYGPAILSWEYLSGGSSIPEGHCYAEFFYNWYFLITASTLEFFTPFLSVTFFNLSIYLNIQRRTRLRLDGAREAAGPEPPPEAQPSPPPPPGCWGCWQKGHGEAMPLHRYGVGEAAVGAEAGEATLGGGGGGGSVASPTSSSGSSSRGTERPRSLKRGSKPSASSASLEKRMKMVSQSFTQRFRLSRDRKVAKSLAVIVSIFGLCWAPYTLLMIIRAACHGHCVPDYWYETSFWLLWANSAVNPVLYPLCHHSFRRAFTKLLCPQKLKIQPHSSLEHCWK

Row | Compound | melting point [°C] | Ki [1] [nM] | IC50 [2] [nM]
1 | CN1CCCCC1CCOc1ccc2c(c1)CN(CC1CCCCC1)CC2 (stereo not drawn) (as salt: oxalate) [Compound 9, 2-(cyclohexylmethyl)-7-[2-(1-methylpiperidin-2-yl)ethoxy]-1,2,3,4-tetrahydroisoquinoline] | 101 to 111 |  | 
2 | CN1CCCC(Oc2ccc3c(c2)CN(Cc2cccs2)CC3)CC1 (stereo not drawn) (as salt: oxalate) [Compound 12, 7-[(1-methylazepan-4-yl)oxy]-2-(2-thienylmethyl)-1,2,3,4-tetrahydroisoquinoline] | 98 to 110 |  | 
3 | CN1CCC[C@H]1CCOc1ccc2c3c(ccc2c1)CCN(CC1CCCCC1)C3 (as salt: oxalate) [Compound 15, 2-(cyclohexylmethyl)-8-{2-[(2S)-1-methylpyrrolidin-2-yl]ethoxy}-1,2,3,4-tetrahydrobenzo[h]isoquinoline] | 271 to 274 |  | 
4 | CN1CCCCC1CCOc1ccc2c3c(ccc2c1)CCN(CC1CCCCC1)C3 (stereo not drawn) (as salt: oxalate) [Compound 17, 2-(cyclohexylmethyl)-8-[2-(1-methylpiperidin-2-yl)ethoxy]-1,2,3,4-tetrahydrobenzo[h]isoquinoline] | 124 to 127 |  | 
5 | CC(C)CN1CCc2ccc(OCCC3CCCN3C)cc2C1 (stereo not drawn) (as salt: tartrate) | 77 to 80 |  | 
6 | CCCN1CCc2ccc(OC3CCCN(C)CC3)cc2C1 (stereo not drawn) (as salt: tartrate) | 76 to 97 |  | 
7 | CCCN1CCc2ccc(OCCC3CCCN3C)cc2C1 (stereo not drawn) (as salt: tartrate) | 66 to 91 |  | 
8 | CC(C)CCN1CCc2ccc(OCCC3CCCN3C)cc2C1 (stereo not drawn) (as salt: tartrate) [Compound 3, 2-(3-methylbutyl)-7-[2-(1-methylpyrrolidin-2-yl)ethoxy]-1,2,3,4-tetrahydroisoquinoline] | 61 to 65 |  | 
9 | CC(C)CCN1CCc2ccc(OC3CCCN(C)CC3)cc2C1 (stereo not drawn) (as salt: tartrate) [Compound 4, 7-[(1-methylazepan-4-yl)oxy]-2-(3-methylbutyl)-1,2,3,4-tetrahydroisoquinoline] | 60 to 70 |  | 

The next lines start with the values.

Row | melting point [°C] | Ki [1] [nM] | IC50 [2] [nM] | Compound
10 | 186 to 190 |  |  | CCCN1CCc2ccc(OCCC3CCCCN3C)cc2C1 (stereo not drawn) (as salt: hydrochloride)
11 | 190 to 200 |  |  | CN1CCC[C@@H]1CCOc1ccc2c(c1)CN(CC1CCCCC1)CC2 (as salt: hydrochloride) [Compound 6, 2-(cyclohexylmethyl)-7-{2-[(2R)-1-methylpyrrolidin-2-yl]ethoxy}-1,2,3,4-tetrahydroisoquinoline]
12 | 274 to 277 |  |  | CN1CCC[C@@H]1CCOc1ccc2c3c(ccc2c1)CCN(CC1CCCCC1)C3 (as salt: hydrochloride) [Compound 14, 2-(cyclohexylmethyl)-8-{2-[(2R)-1-methylpyrrolidin-2-yl]ethoxy}-1,2,3,4-tetrahydrobenzo[h]isoquinoline]
13 | 238 to 241 |  |  | CN1CCC[C@H]1CCOc1ccc2c(c1)CN(CC1CCCCC1)CC2 (as salt: hydrochloride) [Compound 18, 2-(Cyclohexylmethyl)-7-(2-[(2S)-1-methylpyrrolidin-2-yl]ethoxy)-1,2,3,4-tetrahydroisoquinoline hydrochloride (1:2)]
14 | 195 to 199 |  |  | CN1CCC[C@H]1CCOc1ccc2c(c1)CN(CC1CCCCC1)CC2 (as salt: oxalate) [Compound 7, 2-(cyclohexylmethyl)-7-{2-[(2S)-1-methylpyrrolidin-2-yl]ethoxy}-1,2,3,4-tetrahydroisoquinoline]
15 | 143 to 150 |  |  | CN1CCCC1CCOc1ccc2c(c1)CN(Cc1ccccc1)CC2 (stereo not drawn) (as salt: oxalate) [Compound 10, 2-benzyl-7-[2-(1-methylpyrrolidin-2-yl)ethoxy]-1,2,3,4-tetrahydroisoquinoline]
16 | 108 to 116 |  |  | CN1CCCC(Oc2ccc3c(c2)CN(Cc2ccccc2)CC3)CC1 (stereo not drawn) (as salt: oxalate) [Compound 11, 2-benzyl-7-[(1-methylazepan-4-yl)oxy]-1,2,3,4-tetrahydroisoquinoline]
17 | 77 to 82 |  |  | CN1CCCC(Oc2ccc3c4c(ccc3c2)CCN(CC2CCCCC2)C4)CC1 (stereo not drawn) (as salt: oxalate) [Compound 16, 2-(cyclohexylmethyl)-8-[(1-methylazepan-4-yl)oxy]-1,2,3,4-tetrahydrobenzo[h]isoquinoline]
18 | 96 to 107 |  |  | CCCCN1CCc2ccc(OC3CCCN(C)CC3)cc2C1 (stereo not drawn) (as salt: tartrate)
19 | 95 to 105 |  |  | CCCCN1CCc2ccc(OCCC3CCCN3C)cc2C1 (stereo not drawn) (as salt: tartrate)
20 |  | 0.1 | < 10 | CN1CCCC1CCOc1ccc2c(c1)CN(CC1CCCCC1)CC2 (stereo not drawn) [Compound 5, 2-(cyclohexylmethyl)-7-[2-(1-methylpyrrolidin-2-yl)ethoxy]-1,2,3,4-tetrahydroisoquinoline]
